Like-named read-outs stand apart in the source and are kept apart here. Ends that are not written are not given here.
Key:
[1] = IVGTT duration of action assay, single SC injection; type: in vivo, rat; conditions: compared with 0601GIP3794 (794); @ -120 min
Procedure: In the typical IVGTT assays the test sample was administered by IV infusion. The IV infusion of sample was initiated at t = -30min and continued through t = 90. IV glucose was given at t = 0. To determine a duration of action using the IVGTT assay, the sample was injected SC as a single injection at one time point indicated (e.g., t = -240, -120, -60 or -30) prior to administration of glucose. IV glucose was given at t = 0.

[2] = type: in vivo, NIH/Swiss mice; conditions: 80 nmol/Kg; AUC240
Procedure: Gavage (1.5g/kg) was given at t=0. Sample was taken at t=30 min.

[3] = type: in vivo, rats; parameters: AUC Change in Insulin Pre IVGTT / AUC Change in Insulin Post IVGTT: unit not given beside the values; conditions: for AUC Change in Insulin Post IVGTT / AUC Change in Insulin Pre IVGTT: rat, in vivo
[4] = cited from earlier work; for inhibition of gastric emptying: at doses of 100µg; for EC(50): inhibition of gastric emptying, subcutaneous
[5] = 100 pmol/kg/min infusion dose in rats

## CC[C@H](C)[C@H](NC(=O)[C@H](CO)NC(=O)[C@H](Cc1ccc(O)cc1)NC(=O)[C@H](CC(=O)O)NC(=O)[C@H](CO)NC(=O)[C@@H](NC(=O)[C@H](Cc1ccccc1)NC(=O)[C@@H](NC(=O)CNC(=O)[C@H](CCC(=O)O)NC(=O)[C@@H](C)NC(=O)[C@@H](N)Cc1ccc(O)cc1)[C@@H](C)O)[C@@H](C)CC)C(=O)N[C@@H](C)C(=O)N[C@@H](CCSC)C(=O)N[C@@H](CC(=O)O)C(=O)N[C@@H](CCCCN)C(=O)N[C@H](C(=O)N[C@@H](Cc1c[nH]cn1)C(=O)N[C@@H](CCC(N)=O)C(=O)N[C@@H](CCC(N)=O)C(=O)N[C@@H](CC(=O)O)C(=O)N[C@@H](Cc1ccccc1)C(=O)N[C@H](C(=O)N[C@@H](CC(N)=O)C(=O)N[C@@H](Cc1c[nH]c2ccccc12)C(=O)N[C@@H](CC(C)C)C(=O)N[C@@H](CC(C)C)C(=O)N[C@@H](C)C(=O)N[C@@H](CCC(N)=O)C(=O)N[C@@H](CCCCN)C(=O)N1CCC[C@H]1C(=O)N[C@@H](CCCCN)C(=O)N[C@@H](CCCCN)C(=O)N[C@@H](CC(C)C)C(=O)N[C@@H](CCCCN)C(=O)N1CCC[C@H]1C(=O)N[C@@H](CO)C(N)=O)C(C)C)[C@@H](C)CC [0601 GIP48 22]
[1]
  Duration In The Rat IVGTT Assay: <794@-120 min
[2]
  Basal Glucose Lowering at 80 nmol/Kg: -11%, AUC240

## [dAla2]GIP-(1-30)-[Octylglycine 34] Exendin-4 (31-39) [Compound 0601GIP4252]
[3]
  AUC Change in Insulin Post IVGTT: 1218.1+ -12.7
  AUC Change in Insulin Pre IVGTT: 11.9+-11.7
[2]
  Basal Glucose Lowering at 80 nmol/Kg: -7%, AUC240

## CC[C@H](C)[C@H](NC(=O)[C@H](CO)NC(=O)[C@H](Cc1ccc(O)cc1)NC(=O)[C@H](CC(=O)O)NC(=O)[C@H](CO)NC(=O)[C@@H](NC(=O)[C@H](Cc1ccccc1)NC(=O)[C@@H](NC(=O)CNC(=O)[C@H](CCC(=O)O)NC(=O)[C@@H](C)NC(=O)[C@@H](N)Cc1ccc(O)cc1)[C@@H](C)O)[C@@H](C)CC)C(=O)N[C@@H](C)C(=O)N[C@@H](CCSC)C(=O)N[C@@H](CC(=O)O)C(=O)N[C@@H](CCCCN)C(=O)N[C@H](C(=O)N[C@@H](Cc1c[nH]cn1)C(=O)N[C@@H](CCC(N)=O)C(=O)N[C@@H](CCC(N)=O)C(=O)N[C@@H](CC(=O)O)C(=O)N[C@@H](Cc1ccccc1)C(=O)N[C@H](C(=O)N[C@@H](CC(N)=O)C(=O)N[C@@H](Cc1c[nH]c2ccccc12)C(=O)N[C@@H](CC(C)C)C(=O)N[C@@H](CC(C)C)C(=O)N[C@@H](C)C(=O)N[C@@H](CCC(N)=O)C(=O)N[C@@H](CCCCN)C(=O)N1CCC[C@H]1C(=O)N[C@@H](C)C(=O)N[C@@H](CCCCN)C(=O)N[C@H](C(=O)N[C@@H](CCCNC(=N)N)C(=O)N[C@@H](Cc1ccc(O)cc1)C(=O)N[C@@H](CO)C(N)=O)[C@@H](C)CC)C(C)C)[C@@H](C)CC [0601 GIP48 15]
[1]
  Duration In The Rat IVGTT Assay: < 794@ -120 min
[2]
  Basal Glucose Lowering at 80 nmol/Kg: -14%, AUC240

## [dAla2, Leu14, beta-Ala31, beta-Ala32] GIP-(1-32)-Exendin-4 (31-39) [Compound 0601GIP4179]
[3]
  AUC Change in Insulin Post IVGTT: 206.8+-30.1
  AUC Change in Insulin Pre IVGTT: 52.4+-9.6
[2]
  Basal Glucose Lowering at 80 nmol/Kg: -17%, AUC240

## CC[C@H](C)[C@H](NC(=O)[C@H](CO)NC(=O)[C@H](Cc1ccc(O)cc1)NC(=O)[C@H](CC(=O)O)NC(=O)[C@H](CO)NC(=O)[C@@H](NC(=O)[C@H](Cc1ccccc1)NC(=O)[C@@H](NC(=O)CNC(=O)[C@H](CCC(=O)O)NC(=O)[C@@H](C)NC(=O)[C@@H](N)Cc1ccc(O)cc1)[C@@H](C)O)[C@@H](C)CC)C(=O)N[C@@H](C)C(=O)N[C@@H](CCSC)C(=O)N[C@@H](CC(=O)O)C(=O)N[C@@H](CCCCN)C(=O)N[C@H](C(=O)N[C@@H](Cc1c[nH]cn1)C(=O)N[C@@H](CCC(N)=O)C(=O)N[C@@H](CCC(N)=O)C(=O)N[C@@H](CC(=O)O)C(=O)N[C@@H](Cc1ccccc1)C(=O)N[C@H](C(=O)N[C@@H](CC(N)=O)C(=O)N[C@@H](Cc1c[nH]c2ccccc12)C(=O)N[C@@H](CC(C)C)C(=O)N[C@@H](CC(C)C)C(=O)N[C@@H](C)C(=O)N[C@@H](CCC(N)=O)C(=O)N[C@@H](CCCCN)C(=O)N1CCC[C@H]1C(=O)N[C@@H](CO)C(=O)N1CCC[C@H]1C(=O)N[C@@H](CCCCN)C(=O)N[C@@H](CCCCN)C(=O)N[C@H](C(=O)N[C@@H](CCCNC(=N)N)C(=O)N[C@@H](Cc1ccc(O)cc1)C(=O)N[C@@H](CO)C(N)=O)[C@@H](C)CC)C(C)C)[C@@H](C)CC [0601 GIP48 23]
[1]
  Duration In The Rat IVGTT Assay: <794@-120 min
[2]
  Basal Glucose Lowering at 80 nmol/Kg: -23%, AUC2240

## somatostatin: peptide compared for inhibition of gastric emptying in conscious rats (AGCKNFFWKTFTSC; ends and bridges not checked; cysteine pairing not given here; UniProt P61278 103-116, looked up)
[4]
  inhibition of gastric emptying: weakly active or inactive

## octylglycine-GIP(1-30)-Exendin-4-(31-39) [Compound 0601GIP4178]
[3]; [5]
  insulin levels prior to the glucose challenge: significant rise in insulin levels
  insulinotropic response to an intravenous glucose challenge: diminished insulinotropic response
[3]
  AUC Change in Insulin Post IVGTT: 106.6+-23.8
  AUC Change in Insulin Pre IVGTT: 18.5+-6.7
[2]
  Basal Glucose Lowering at 80 nmol/Kg: -13%, AUC240

## glucagon: peptide compared for inhibition of gastric emptying in conscious rats
[4]
  inhibition of gastric emptying: weakly active or inactive

## CC[C@H](C)[C@H](NC(=O)[C@H](CO)NC(=O)[C@H](Cc1ccc(O)cc1)NC(=O)[C@H](CC(=O)O)NC(=O)[C@H](CO)NC(=O)[C@@H](NC(=O)[C@H](Cc1ccccc1)NC(=O)[C@@H](NC(=O)CNC(=O)[C@H](CCC(=O)O)NC(=O)[C@@H](C)NC(=O)[C@@H](N)Cc1ccc(O)cc1)[C@@H](C)O)[C@@H](C)CC)C(=O)N[C@@H](C)C(=O)N[C@@H](CCSC)C(=O)N[C@@H](CC(=O)O)C(=O)N[C@@H](CCCCN)C(=O)N[C@H](C(=O)N[C@@H](Cc1c[nH]cn1)C(=O)N[C@@H](CCC(N)=O)C(=O)N[C@@H](CCC(N)=O)C(=O)N[C@@H](CC(=O)O)C(=O)N[C@@H](Cc1ccccc1)C(=O)N[C@H](C(=O)N[C@@H](CC(N)=O)C(=O)N[C@@H](Cc1c[nH]c2ccccc12)C(=O)N[C@@H](CC(C)C)C(=O)N[C@@H](CC(C)C)C(=O)N[C@@H](C)C(=O)N[C@@H](CCC(N)=O)C(=O)N[C@@H](CCCCN)C(=O)N1CCC[C@H]1C(=O)N[C@@H](CCCCN)C(=O)N[C@@H](CCCCN)C(=O)N[C@@H](C)C(=O)N[C@@H](CCCNC(=N)N)C(=O)N[C@@H](Cc1ccc(O)cc1)C(=O)N[C@@H](CO)C(N)=O)C(C)C)[C@@H](C)CC [0601 GIP48 56]
[1]
  Duration In The Rat IVGTT Assay: <794@-120 min
[2]
  Basal Glucose Lowering at 80 nmol/Kg: -3%, AUC240

## KCNTATCATQRLANFLVHSSNNFGAILSSTNVGSNTY [Human amylin]
[4]; conscious rats ~200g
  EC(50): 0.15 µg
[4]; conscious rats
  EC(50): 0.19 nmol/kg

## Gastrin releasing peptide: peptide compared for inhibition of gastric emptying in conscious rats (VPLPAGGGTVLTKMYPRGNHWAVGHLM; ends and bridges not checked; UniProt P07492 24-50, looked up)
[4]; conscious rats ~200g
  EC(50): 28.5 µg
[4]; conscious rats
  EC(50): 49.9 nmol/kg

## ^25,28,29Pro-h-amylin (KCNTATCATQRLANFLVHSSNNFGPILPPTNVGSNTY; chains of the INN, looked up) [Pramlintide]
[4]; conscious rats ~200g
  EC(50): 0.07 µg

## CC[C@H](C)[C@H](NC(=O)[C@H](CO)NC(=O)[C@H](Cc1ccc(O)cc1)NC(=O)[C@H](CC(=O)O)NC(=O)[C@H](CO)NC(=O)[C@@H](NC(=O)[C@H](Cc1ccccc1)NC(=O)[C@@H](NC(=O)CNC(=O)[C@H](CCC(=O)O)NC(=O)[C@@H](C)NC(=O)[C@@H](N)Cc1ccc(O)cc1)[C@@H](C)O)[C@@H](C)CC)C(=O)N[C@@H](C)C(=O)N[C@@H](CCSC)C(=O)N[C@@H](CC(=O)O)C(=O)N[C@@H](CCCCN)C(=O)N[C@H](C(=O)N[C@@H](Cc1c[nH]cn1)C(=O)N[C@@H](CCC(N)=O)C(=O)N[C@@H](CCC(N)=O)C(=O)N[C@@H](CC(=O)O)C(=O)N[C@@H](Cc1ccccc1)C(=O)N[C@H](C(=O)N[C@@H](CC(N)=O)C(=O)N[C@@H](Cc1c[nH]c2ccccc12)C(=O)N[C@@H](CC(C)C)C(=O)N[C@@H](CC(C)C)C(=O)N[C@@H](C)C(=O)N[C@@H](CCC(N)=O)C(=O)N[C@@H](CCCCN)C(=O)N1CCC[C@H]1C(=O)N[C@@H](CCCCN)C(=O)N[C@@H](CCC(N)=O)C(=O)N[C@H](C(=O)N[C@@H](CCCNC(=N)N)C(=O)N[C@@H](Cc1ccc(O)cc1)C(=O)N[C@@H](CO)C(N)=O)[C@@H](C)CC)C(C)C)[C@@H](C)CC [0601 GIP48 54]
[1]
  Duration In The Rat IVGTT Assay: < 794@ -120 min

## adrenomedullin: peptide compared for inhibition of gastric emptying in conscious rats (YRQSMNNFQGLRSFGCRFGTCTVQKLAHQIYQFTDKDKDNVAPRSKISPQGY; ends and bridges not checked; cysteine pairing not given here; UniProt P35318 95-146, looked up)
[4]
  inhibition of gastric emptying: weakly active or inactive

## pancreatic polypeptide: peptide compared for inhibition of gastric emptying in conscious rats (APLEPVYPGDNATPEQMAQYAADLRRYINMLTRPRY; ends and bridges not checked; UniProt P01298 30-65, looked up)
[4]
  inhibition of gastric emptying: weakly active or inactive

## Rat calcitonin: peptide compared for inhibition of gastric emptying in conscious rats (CGNLSTCMLGTYTQDLNKFHTFPQTSIGVGAP; ends and bridges not checked; cysteine pairing not given here; UniProt P01257 85-116, looked up)
[4]; conscious rats ~200g
  EC(50): 0.64 µg
[4]; conscious rats
  EC(50): 0.94 nmol/kg

Reference: EP2057188B1 (priority 2006, dated 2008)
